Measured values taken from ChEMBL document CHEMBL1221404, “Caylobolide B, a macrolactone from symplostatin 1-producing marine cyanobacteria Phormidium spp. from Florida” (J Nat Prod, 2010).

How the values were obtained:
Type in all cases: functional, cell-based
HT-29 = test: Cytotoxicity against human HT-29 cells after 48 hrs by MTT assay; conditions: HT-29, 48 h
HeLa = test: Cytotoxicity against human HeLa cells after 48 hrs by MTT assay
HCT-116 = test: Cytotoxicity against human HCT116 cells

SMILES: CC[C@H](C)[C@@H]([C@@H](CC(=O)N1CCC[C@H]1[C@H](OC)[C@@H](C)C(=O)N[C@@H](Cc1ccccc1)c1nccs1)OC)N(C)C(=O)[C@@H](NC(=O)[C@H]([C@@H](C)CC)N(C)C)C(C)C [SYMPLOSTATIN 1]
- IC50 (HT-29): 0.0015 µM

SMILES: CCCCC(C)C1CC(O)CCC[C@H](O)C[C@@H](O)C[C@@H](O)CCCC(O)CCCC(O)CCCC(O)CCC[C@@H](O)C[C@@H](O)CCC/C(C)=C/C(=O)O1 (some centres undefined) [CAYLOBOLIDE B]
- IC50 (HT-29): 4.5 µM
- IC50 (HeLa): 12.2 µM

SMILES: CCCCC(C)C1C[C@@H](O)CCC[C@H](O)C[C@@H](O)C[C@@H](O)CCCC(O)CCCC(O)CCCC(O)CCCC(O)CC(O)CCC/C(C)=C/C(=O)O1 (some centres undefined) [CAYLOBOLIDE A]
- AC50 (HCT-116): Active
